Measured values taken from the supplement of paper PMC4862054.

Key:
Assay in all cases: normalised viability (% of control), CellTiter-Blue; higher = more viable cells (about 100 = DMSO control)
[1] = test system: MDA-MB-453; details: 1 nM; incubation time: 72 h
Procedure: (§1)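 DSRT, CellTiter-Blue viability, 72 h incubation. Signal is normalised to DMSO and benzethonium chloride controls. Value is the normalised response at dose 3.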

[2] = test system: MDA-MB-231; details: 10 nM; incubation time: 72 h
Procedure: as §1

[3] = test system: CAL-85-1; details: 1 nM; incubation time: 72 h
Procedure: as §1

[4] = test system: MFM-223; details: 10 nM; incubation time: 72 h
Procedure: as §1

[5] = test system: MDA-MB-436; details: 10 nM; incubation time: 72 h
Procedure: as §1

[6] = test system: HDQ-P1; details: 1 nM; incubation time: 72 h
Procedure: as §1

[7] = test system: HCC1599; details: 10 nM; incubation time: 72 h
Procedure: as §1

[8] = test system: CAL-120; details: 10 nM; incubation time: 72 h
Procedure: as §1

[9] = test system: SK-BR-3; details: 10 nM; incubation time: 72 h
Procedure: as §1

[10] = test system: BT-549; details: 10 nM; incubation time: 72 h
Procedure: as §1

[11] = test system: HCC1143; details: 10 nM; incubation time: 72 h
Procedure: as §1

[12] = test system: CAL-51; details: 1 nM; incubation time: 72 h
Procedure: as §1

[13] = test system: DU-4475; details: 1 nM; incubation time: 72 h
Procedure: as §1

[14] = test system: Hs578T; details: 10 nM; incubation time: 72 h
Procedure: as §1

[15] = test system: MDA-MB-468; details: 10 nM; incubation time: 72 h
Procedure: as §1

[16] = test system: CAL-148; details: 1 nM; incubation time: 72 h
Procedure: as §1

[17] = test system: BT-474; details: 10 nM; incubation time: 72 h
Procedure: as §1

[18] = test system: HCC1937; details: 10 nM; incubation time: 72 h
Procedure: as §1

[19] = test system: MDA-MB-231; details: incubation time: 72 h
Summary of the method: (§2)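 Compound dissolved in 5 µl medium was pre-loaded into 384-well plates, and breast cancer cell lines in 20 µl suspension were seeded on top and incubated 72 h. After adding 2.5 µl CellTiter-Blue reagent for 2 h at 37 °C, fluorescence was read at 560/590 nm. Plates were normalised to vehicle (100) and a positive kill control (0), with Z'-factor quality control. Each value is normalised viability at a single listed concentration from the series.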

[20] = test system: CAL-85-1; details: incubation time: 72 h
Summary of the method: as §2

[21] = test system: CAL-120; details: incubation time: 72 h
Summary of the method: as §2

[22] = test system: SK-BR-3; details: incubation time: 72 h
Summary of the method: as §2

[23] = test system: BT-549; details: incubation time: 72 h
Summary of the method: as §2

[24] = test system: HCC1143; details: incubation time: 72 h
Summary of the method: as §2

[25] = test system: DU-4475; details: incubation time: 72 h
Summary of the method: as §2

[26] = test system: Hs578T; details: incubation time: 72 h
Summary of the method: as §2

[27] = test system: MDA-MB-468; details: incubation time: 72 h
Summary of the method: as §2

[28] = test system: CAL-148; details: incubation time: 72 h
Summary of the method: as §2

[29] = test system: BT-474; details: incubation time: 72 h
Summary of the method: as §2

CC(=O)[C@]1(O)Cc2c(O)c3c(c(O)c2[C@@H](O[C@H]2C[C@H](N)[C@H](O)[C@H](C)O2)C1)C(=O)c1ccccc1C3=O [Idarubicin]
Details	normalised viability [%]
[1]	98
[2]	102
[3]	92.3
[4]	103
[5]	106
[6]	113
[7]	97.2
[8]	70.1
[9]	67
[10]	82.6
[11]	103
[12]	105
[13]	98
[14]	72.8
[15]	73.3
[16]	93.9
[17]	113
[18]	47.2

normalised viability [%]
Details	0.3 nM	1 nM	3 nM	10 nM	100 nM	1000 nM
[19]	–	101	–	–	41.5	8.68
[20]	104	–	91.9	94.3	–	–
[21]	–	108	–	–	40.7	11.1
[22]	–	107	–	–	26.4	4.23
[23]	–	108	–	–	50	9.06
[24]	–	96	–	–	61	30.1
[25]	89.8	–	90.2	55.7	–	–
[26]	–	107	–	–	57.1	5.7
[27]	–	100	–	–	41.2	4.98
[28]	91.7	–	93.2	63.2	–	–
[29]	–	97.3	–	–	61.8	7.38

C/C(=C\c1csc(C)n1)[C@@H]1C[C@@H]2O[C@]2(C)CCC[C@H](C)[C@H](O)[C@@H](C)C(=O)C(C)(C)[C@@H](O)CC(=O)N1 [Ixabepilone]
Details	normalised viability [%]
[1]	89.6
[2]	98
[3]	90.1
[4]	73.3
[5]	105
[6]	82.7
[7]	94.9
[8]	76.4
[9]	80.7
[10]	95.2
[11]	77
[12]	104
[13]	94.3
[14]	81.2
[15]	91.1
[16]	90.5
[17]	96.6
[18]	95.2

normalised viability [%]
Details	0.3 nM	1 nM	3 nM	10 nM	100 nM	1000 nM
[19]	–	84.7	–	–	51.6	16.8
[20]	83.4	–	87.8	88.9	–	–
[21]	–	75.6	–	–	78.3	50.4
[22]	–	87.8	–	–	82.5	12.6
[23]	–	69.2	–	–	96.9	19.6
[24]	–	79.3	–	–	80.7	25.6
[25]	95.4	–	77	92.4	–	–
[26]	–	107	–	–	98.8	25
[27]	–	97.8	–	–	88.5	45.4
[28]	95.2	–	97.1	92.8	–	–
[29]	–	109	–	–	115	26
